Paper PMC4997316, “A ruthenium polypyridyl intercalator stalls DNA replication forks, radiosensitizes human cancer cells and is enhanced by Chk1 inhibition” (Scientific Reports, 2016)

Assays:
Calf thymus DNA = assay: relative viscosity of DNA on addition of complex; type: binding; settings: calf thymus DNA 4.19 × 10^−5 M, r 0-0.3
Experimental: The novel ruthenium(II) polypyridyl complexes [Ru(dppz)2(PIP)]^2+, 1, and [Ru(dppz)2(p-HPIP)]^2+, 2, (dppz = dipyrido[3,2-a:2′,3′-c]phenazine, PIP = (2-(phenyl)imidazo[4,5-f][1,10]phenanthroline) and p-HPIP ((2-(4-hydroxyphenyl)imidazo[4,5-f][1,10]phenanthroline)) were prepared by modification of reported synthetic pathways[17][30][31] and characterised by standard spectroscopic and analytical techniques (Figs S1–7 in the Supplementary Information). Evidence of a reversible binding interaction with DNA is provided by evidence of hypochromicity of the absorption spectra of 1 and 2 with increasing concentrations of DNA (Fig. S8). […] To investigate specific binding mode, relative viscosities of DNA with increasing concentrations of each complex were determined, where an increase in relative viscosity corresponds to the unwinding and lengthening of the DNA strand as a result of intercalation. […]
Calf thymus DNA, CT-DNA, (Sigma) was dissolved in NaCl (25 mm) and Tris (5 mm, pH 7.0) buffer and concentrations of determined spectroscopically (ε = 6600 dm^3 mol^−1cm^−1 at 260 nm). […] An equilibration time of 20 min was allowed before the flow times were recorded by Cannon–Manning semimicro viscometer (size 50) immersed in a thermostat bath (27 °C). Times were recorded in triplicate to within 0.1 second of each other and averaged values obtained.

γH2AX in HeLa cells = assay: γH2AX expression after irradiation (Western blot densitometry); type: cell-based, human; settings: 40 μM 20 h then 6 Gy IR, harvested 1 h after irradiation
Experimental: Chemotherapeutics are often used in combination with external beam ionising radiation in the treatment of cancers and many drugs that inhibit DNA replication are potent radiosensitizers. To examine the possibility that 1 may function as a radiosensitizer, HeLa cells were pre-treated with 1 for 20 h before irradiation (0–6 Gy ionising irradiation (IR); ^137Cs-γ-rays; dose rate = 0.809 Gy min^−1). After further incubation for 4 h with the complex, the relative impact on cell viability was assessed by clonogenic survival. Complex 2, which achieves its impact on cell proliferation through non-DNA damage-based autophagy, was included in parallel for comparison. […] The formation of γH2AX is an early response to IR-induced DSB generation and may provide an indication of DNA damage levels. […]
Figure 6 [Ru(dppz)2(PIP)]^2+ sensitises human cancer cells to external beam ionising radiation. […] Survival fraction (S. F.) as a result of each treatment was determined by clonogenic assay and is presented as the mean +/− SD of two independent experiments where each experiment was performed in triplicate. […] Cells were harvested 1 h after irradiation and lysates analysed by Western blotting (left). γH2AX levels were measured by densitometry relative to β-actin loading controls and normalised to DMSO + 6 Gy data (right). […]

[1] = system: primary human foreskin fibroblasts (HFF); assay: MTT proliferation assay, HFF; type: cell-based; settings: 24 h proliferation assay
Experimental: (§1) (LC3 = Microtubule-associated protein light chain 3) (Fig. 2b, bottom).
(§2) Cells were seeded in 96 well plates at 20,000 cells/well, allowed to proliferate for 24 h before treatment as described in the main text. 0.5 mg ml^−1 MTT (thiazolyl blue tetrazolium bromide) dissolved in serum-free media was added for 60 minutes and the formazan product eluted using acidified isopropanol. The absorbance at 540 nm was quantified by plate reader (reference wavelength 650 nm). The metabolic activity of the cell population was determined as a percentage of a negative (solvent) control.

[2] = system: HeLa cervical cancer cells; assay: MTT proliferation assay, HeLa; type: cell-based, human; settings: 24 h proliferation assay
Experimental: as §1, §2

Compound	relative viscosity of DNA (Calf thymus DNA)	γH2AX levels compared to IR alone (γH2AX in HeLa cells)	IC50 [1] [µM]	IC50 [2] [µM]
Oc1ccc(-c2nc3c4cccnc4c4ncccc4c3[nH]2)cc1.[Ru+2].c1ccc2nc3c4cccnc4c4ncccc4c3nc2c1.c1ccc2nc3c4cccnc4c4ncccc4c3nc2c1 [Complex 2, [Ru(dppz)2(p-HPIP)]^2+]	increase relative viscosity of DNA	no such increase in γH2AX expression	> 100	14
[Ru+2].c1ccc(-c2nc3c4cccnc4c4ncccc4c3[nH]2)cc1.c1ccc2nc3c4cccnc4c4ncccc4c3nc2c1.c1ccc2nc3c4cccnc4c4ncccc4c3nc2c1 [Complex 1, [Ru(dppz)2(PIP)]^2+]	increase relative viscosity of DNA	approximately two-fold greater	> 100	38
